The source of these data is patent publication US6521736B2, “Amphiphilic polymeric materials” (priority 2000, dated 2003).

Data set [1] in a line: Encapsulation of small molecules in PEG-1500-DMOI micelles, determined by UV spectroscopy. The conditions noted are these: for loading of complexed drug: complexed with PEG-1500-DMOI from 4:1 chloroform/methanol, taken up in water, UV. It is filed as physicochemical. On the procedure:
Benzo[a]Pyrene (BP), a dye and potent carcinogen, was chosen as a hydrophobic model because BP encapsulation within aqueous micelles of the PEG-1500-DMOI polymer can be monitored by UV absorption spectroscopy. The amount of dye encapsulated in the micelles was readily determined by UV spectroscopy since an absorbance signal due to benzo[a]pyrene appeared in the 340-450 nm region only when the dye was solubilized within the aqueous micelle. Different concentrations of dye were prepared in dichloromethane and each was added to a constant amount of polymeric micelle solution (1 ml of 100 mg/ml). Polymer-dye complex films were cast on glass and dried under vacuum at room temperature overnight. The films were then removed and redissolved in water by sonication at 35° C. for 10 minutes, and purified by filtration from excess dye. A homogenous, stable solution of the dye was formed at concentrations of more than 0.25 wt %, indicating partitioning of the dye into the micellar core. The maximum loading capacity of the dye was 0.88% (w/w). […] A partition coefficient of 5×10^4 was determined, indicating strong partitioning.
In other experiments using this encapsulation method, PEG-1500-DMOI was complexed with either camptothecin or etoposide by combining the polymer and drug in a 4:1 chloroform/methanol mixture, then evaporating the resulting mixture overnight at room temperature under vacuum. The residue was treated with 5 ml water and filtered to remove any uncomplexed camptothecin. The solution was then examined with UV spectroscopy to determine the amount of complexed drug.

For data set [2], the system named is HIVLAI. The conditions noted are these: unencapsulated drug; cited from earlier work.
In data set [3] the test system is mammalian cell cultures. The data set can be described thus: Cell growth, morphology and viability (XTT dye) in mammalian cell cultures. It is filed as cell-based. The conditions noted are these: 1 mM extracellular unencapsulated drug. The protocol: […] At higher concentrations (e.g., 30 μM), loss of cell viability was seen. Host cell translation was monitored by the expression of inducible β-galactosidase activity; cell viability was monitored spectrophotometrically using XTT dye.

The test system of data set [4] is HIV-1 Rev. The following applies: CD4+HeLa cells, non-encapsulated drug; cited from earlier work.
Data set [5] deals with CD4+HeLa cells. The following applies: non-encapsulated drug; cited from earlier work.
The mark [6] stands for this setting: in aqueous PEG-1500-DMOI micelles.

As for `c1ccc2c(c1)cc1ccc3cccc4ccc2c1c34` [Benzo[a]Pyrene], the partition coefficient in data set [1] is listed as 5×10^4. In addition, in data set [1] (setting [6]), the “dye concentration at which a homogenous, stable solution was formed” value is “more than 0.25 wt %” and the “maximum loading capacity of the dye” value is listed as 0.88 % (w/w).
`CC[C@@]1(O)C(=O)OCc2c1cc1n(c2=O)Cc2cc3ccccc3nc2-1` [camptothecin]: the “loading of complexed drug” value in data set [1] is 1.25 % (w/w).
Regarding `COc1cc([C@@H]2c3cc4c(cc3[C@@H](O[C@@H]3O[C@@H]5CO[C@@H](C)O[C@H]5[C@H](O)[C@H]3O)[C@H]3COC(=O)[C@H]23)OCO4)cc(OC)c1O` [etoposide], the “loading of complexed drug” value in data set [1] was 3.1 % (w/w).
As for `NC[C@@H]1O[C@H](O[C@H]2[C@@H](O)[C@H](O[C@@H]3[C@@H](O)[C@H](N)C[C@H](N)[C@H]3O[C@H]3O[C@H](CN)[C@@H](O)[C@H](O)[C@H]3N)O[C@@H]2CO)[C@H](N)[C@@H](O)[C@@H]1O` [unencapsulated neomycin B, neomycin B], in data set [2], the “concentration that inhibits HIV production, previously reported” value is listed as 2,500-5,000 μM.
On to `C=C(NC(=O)C(=C)NC(=O)c1csc(C2=N[C@@H]3c4csc(n4)[C@H]4NC(=O)c5csc(n5)[C@H]([C@](C)(O)[C@@H](C)O)NC(=O)[C@H]5CSC(=N5)/C(=C/C)NC(=O)[C@H]([C@@H](C)O)NC(=O)c5csc(n5)[C@]3(CC2)NC(=O)[C@H](C)NC(=O)C(=C)NC(=O)[C@H](C)NC(=O)[C@H]([C@@H](C)CC)N[C@@H]2C=Cc3c([C@H](C)O)cc(nc3[C@H]2O)C(=O)O[C@@H]4C)n1)C(N)=O` [unencapsulated thiostrepton, thiostrepton], for which, in data set [3], the “effect on cell growth or cell morphology” value is reported as “no detectable effect”.
As for “kazugamycin [non-encapsulated kazugamycin]”, in data set [4], the “concentration that blocks HIV-1 Rev function” value was 25 µM. For the same compound, the “concentration at which decreased cell proliferation and necrosis occur” value in data set [5] is 35 µM.
